In patent US9340590B2 (priority 2011, dated 2016):
Where two headings read alike, the source gives them in different places. Positions of bridges follow the written chain, without caps; N, C: chain ends. Non-standard residues stand in square brackets, D forms with d. Residues, ends and D or L forms follow the SMILES beside them. NMeW = CN[C@@H](Cc1c[nH]c2ccccc12)C(=O)O; pGlu = O=C1CC[C@@H](C(=O)O)N1

Columns and labels:
Assay in all cases: cell-based
[1] = molecular target: hNav1.7 (Homo sapiens, UniProt Q15858); assay type: cell-based; conditions: IonWorks Quattro, read-out: IWQ Use Nav1.7
Chain of hNav1.7 (Q15858 whole entry, looked up): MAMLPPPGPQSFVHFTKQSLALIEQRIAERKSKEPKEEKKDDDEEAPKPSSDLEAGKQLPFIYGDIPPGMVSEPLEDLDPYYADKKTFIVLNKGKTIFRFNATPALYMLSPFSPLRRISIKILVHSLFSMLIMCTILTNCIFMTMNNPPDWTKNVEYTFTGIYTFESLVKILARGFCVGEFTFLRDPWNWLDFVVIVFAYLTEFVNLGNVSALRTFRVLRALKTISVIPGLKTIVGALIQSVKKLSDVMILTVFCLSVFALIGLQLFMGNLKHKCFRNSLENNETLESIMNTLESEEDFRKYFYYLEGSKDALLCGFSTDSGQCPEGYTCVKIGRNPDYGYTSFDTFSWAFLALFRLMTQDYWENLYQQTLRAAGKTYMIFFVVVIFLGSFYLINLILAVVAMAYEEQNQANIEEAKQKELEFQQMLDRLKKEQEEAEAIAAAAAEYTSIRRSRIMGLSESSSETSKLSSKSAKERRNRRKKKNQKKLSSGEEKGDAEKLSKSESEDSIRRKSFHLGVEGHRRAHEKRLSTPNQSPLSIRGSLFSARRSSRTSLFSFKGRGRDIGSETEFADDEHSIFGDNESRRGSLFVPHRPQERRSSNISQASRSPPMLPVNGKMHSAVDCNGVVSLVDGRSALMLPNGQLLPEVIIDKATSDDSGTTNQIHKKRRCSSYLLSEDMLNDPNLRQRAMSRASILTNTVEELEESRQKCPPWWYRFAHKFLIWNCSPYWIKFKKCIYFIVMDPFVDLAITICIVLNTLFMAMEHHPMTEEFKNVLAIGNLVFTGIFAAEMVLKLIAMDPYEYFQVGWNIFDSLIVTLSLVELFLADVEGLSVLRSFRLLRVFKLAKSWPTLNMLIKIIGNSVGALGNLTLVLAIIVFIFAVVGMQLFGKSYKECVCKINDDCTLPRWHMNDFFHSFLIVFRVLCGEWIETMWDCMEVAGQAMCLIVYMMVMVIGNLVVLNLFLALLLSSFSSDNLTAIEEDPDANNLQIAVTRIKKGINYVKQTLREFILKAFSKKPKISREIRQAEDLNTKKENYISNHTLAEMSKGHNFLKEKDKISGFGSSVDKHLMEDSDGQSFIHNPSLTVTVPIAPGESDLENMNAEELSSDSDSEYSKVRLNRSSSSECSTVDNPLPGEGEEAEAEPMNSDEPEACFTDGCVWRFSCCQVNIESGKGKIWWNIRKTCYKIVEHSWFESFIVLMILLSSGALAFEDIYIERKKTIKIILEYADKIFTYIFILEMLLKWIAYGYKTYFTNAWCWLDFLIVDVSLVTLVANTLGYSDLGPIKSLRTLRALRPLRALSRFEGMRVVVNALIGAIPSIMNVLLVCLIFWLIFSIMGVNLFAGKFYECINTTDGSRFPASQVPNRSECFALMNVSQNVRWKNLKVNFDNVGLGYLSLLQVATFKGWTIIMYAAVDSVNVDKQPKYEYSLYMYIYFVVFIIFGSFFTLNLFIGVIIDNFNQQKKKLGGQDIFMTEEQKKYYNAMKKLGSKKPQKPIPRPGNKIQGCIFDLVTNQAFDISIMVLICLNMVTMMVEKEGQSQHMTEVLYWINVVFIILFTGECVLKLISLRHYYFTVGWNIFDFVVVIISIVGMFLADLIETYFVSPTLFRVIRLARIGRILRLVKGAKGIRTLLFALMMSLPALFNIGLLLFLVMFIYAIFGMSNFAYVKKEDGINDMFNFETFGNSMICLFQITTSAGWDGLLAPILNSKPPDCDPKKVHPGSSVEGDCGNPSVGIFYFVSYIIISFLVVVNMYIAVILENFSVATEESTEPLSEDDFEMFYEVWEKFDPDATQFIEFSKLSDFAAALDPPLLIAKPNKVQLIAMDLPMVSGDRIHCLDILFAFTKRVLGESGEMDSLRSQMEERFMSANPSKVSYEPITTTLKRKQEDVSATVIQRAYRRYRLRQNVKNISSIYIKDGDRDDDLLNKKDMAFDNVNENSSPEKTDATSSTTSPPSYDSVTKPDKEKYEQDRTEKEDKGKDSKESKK

[2] = molecular target: hNav1.3 (Homo sapiens, UniProt Q9NY46); conditions: IonWorks Quattro, read-out: IWQ Use Nav1.3
Chain of hNav1.3 (Q9NY46 whole entry, looked up): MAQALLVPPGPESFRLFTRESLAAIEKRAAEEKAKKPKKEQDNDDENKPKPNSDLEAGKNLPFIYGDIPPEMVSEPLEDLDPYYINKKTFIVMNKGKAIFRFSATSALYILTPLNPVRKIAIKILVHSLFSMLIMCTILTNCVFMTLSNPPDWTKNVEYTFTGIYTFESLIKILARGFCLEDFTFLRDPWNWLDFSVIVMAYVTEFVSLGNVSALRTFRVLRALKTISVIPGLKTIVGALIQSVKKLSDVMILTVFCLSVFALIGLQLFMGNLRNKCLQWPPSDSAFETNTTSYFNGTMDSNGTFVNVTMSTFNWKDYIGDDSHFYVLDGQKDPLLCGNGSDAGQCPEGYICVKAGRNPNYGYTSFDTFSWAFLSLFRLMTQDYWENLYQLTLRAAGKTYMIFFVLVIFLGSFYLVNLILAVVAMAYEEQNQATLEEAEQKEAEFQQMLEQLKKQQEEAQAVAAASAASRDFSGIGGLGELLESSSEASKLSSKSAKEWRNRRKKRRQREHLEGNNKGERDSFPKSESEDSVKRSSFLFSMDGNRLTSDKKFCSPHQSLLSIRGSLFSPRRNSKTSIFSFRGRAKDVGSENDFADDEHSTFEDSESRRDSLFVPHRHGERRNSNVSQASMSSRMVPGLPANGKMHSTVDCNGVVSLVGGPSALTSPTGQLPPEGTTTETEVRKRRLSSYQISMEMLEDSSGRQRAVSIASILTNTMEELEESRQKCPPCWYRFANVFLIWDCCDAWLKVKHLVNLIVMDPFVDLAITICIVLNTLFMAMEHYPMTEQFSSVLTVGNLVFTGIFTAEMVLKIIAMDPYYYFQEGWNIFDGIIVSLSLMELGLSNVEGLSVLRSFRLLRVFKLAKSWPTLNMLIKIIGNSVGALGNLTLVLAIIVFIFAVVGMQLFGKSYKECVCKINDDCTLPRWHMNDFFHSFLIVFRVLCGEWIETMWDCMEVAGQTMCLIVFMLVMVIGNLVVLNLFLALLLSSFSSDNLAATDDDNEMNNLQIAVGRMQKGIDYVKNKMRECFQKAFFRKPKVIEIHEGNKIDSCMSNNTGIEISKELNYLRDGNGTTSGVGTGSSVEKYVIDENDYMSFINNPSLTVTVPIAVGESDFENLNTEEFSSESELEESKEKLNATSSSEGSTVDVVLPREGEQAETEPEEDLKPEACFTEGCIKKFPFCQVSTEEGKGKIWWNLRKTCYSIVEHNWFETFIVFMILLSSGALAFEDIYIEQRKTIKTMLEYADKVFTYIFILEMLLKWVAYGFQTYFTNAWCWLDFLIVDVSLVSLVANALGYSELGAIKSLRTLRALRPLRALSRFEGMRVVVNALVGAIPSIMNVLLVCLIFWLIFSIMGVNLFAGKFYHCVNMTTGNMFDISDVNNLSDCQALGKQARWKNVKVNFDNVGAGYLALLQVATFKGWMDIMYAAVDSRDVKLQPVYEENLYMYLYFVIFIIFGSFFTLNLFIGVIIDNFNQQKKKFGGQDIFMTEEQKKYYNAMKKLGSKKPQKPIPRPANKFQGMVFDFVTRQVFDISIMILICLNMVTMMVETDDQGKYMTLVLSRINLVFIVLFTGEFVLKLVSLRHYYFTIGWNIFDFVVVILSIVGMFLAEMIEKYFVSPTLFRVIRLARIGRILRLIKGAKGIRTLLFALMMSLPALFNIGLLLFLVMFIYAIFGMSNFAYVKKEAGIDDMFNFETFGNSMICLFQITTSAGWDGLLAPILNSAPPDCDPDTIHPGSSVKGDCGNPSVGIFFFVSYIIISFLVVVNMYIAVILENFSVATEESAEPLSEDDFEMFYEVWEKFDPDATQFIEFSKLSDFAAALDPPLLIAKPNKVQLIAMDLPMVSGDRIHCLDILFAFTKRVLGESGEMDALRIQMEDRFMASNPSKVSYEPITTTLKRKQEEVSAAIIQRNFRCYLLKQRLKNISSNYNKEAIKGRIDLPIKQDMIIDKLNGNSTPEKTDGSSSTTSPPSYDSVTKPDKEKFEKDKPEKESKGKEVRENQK

[3] = molecular target: hNav1.5 (Homo sapiens, UniProt Q14524); conditions: IonWorks Quattro, read-out: IWQ Use Nav1.5
[4] = clamped to −110 mV, depolarized to −10 mV, 5 min after compound, n=2

## CC[C@H](C)[C@@H]1NC(=O)[C@@H]2CSSC[C@@H]3NC(=O)[C@H](C(C)C)NC(=O)[C@H](CC(C)C)NC(=O)[C@H](CC(N)=O)NC(=O)[C@@H]4CCCN4C(=O)[C@H](CCCNC(=N)N)NC(=O)[C@H](CSSC[C@H](NC(=O)[C@@H](N)CC(=O)O)C(=O)N[C@@H](CC(C)C)C(=O)NCC(=O)N[C@@H](Cc4ccccc4)C(=O)N[C@@H](CCSC)C(=O)N[C@@H](CCCNC(=N)N)C(=O)N[C@@H](CCCCN)C(=O)N2)NC(=O)[C@H](CSSC[C@@H](C(=O)N[C@@H](CCCCN)C(=O)N[C@@H](Cc2ccc(O)cc2)C(=O)N[C@H](C(=O)N[C@@H](Cc2c[nH]c4ccccc24)C(N)=O)C(C)C)NC(=O)[C@H](Cc2c[nH]c4ccccc24)NC(=O)[C@H](CCCCN)NC(=O)[C@H](Cc2c[nH]cn2)NC(=O)[C@H]([C@@H](C)O)NC(=O)[C@H](CCCNC(=N)N)NC(=O)[C@H](CO)NC3=O)NC(=O)[C@H](CCCCN)NC(=O)[C@H](CC(=O)O)NC(=O)[C@H](CC(N)=O)NC(=O)[C@H](CC(=O)O)NC(=O)[C@@H]2CCCN2C1=O [compound 86] (H-DCLGFMRKCIPDNDKCCRPNLVCSRTHKWCKYVW-NH2; disulfide 2-17, 9-23, 16-30)
[1]; use-dependent, […]
  IC50: 260 nM
[2]; use-dependent, […]
  IC50: 180 nM
[3]; use-dependent, […]
  IC50: 10000 nM

## CC[C@H](C)[C@@H]1NC(=O)[C@@H]2CSSC[C@@H]3NC(=O)[C@H](C(C)C)NC(=O)[C@H](CC(C)C)NC(=O)[C@H](CC(N)=O)NC(=O)[C@@H]4CCCN4C(=O)[C@H](CCCNC(=N)N)NC(=O)[C@H](CSSC[C@H](NC(=O)[C@@H]4CCC(=O)N4)C(=O)N[C@@H](CC(C)C)C(=O)NCC(=O)N[C@@H](Cc4ccccc4)C(=O)N[C@@H](CCSC)C(=O)N[C@@H](CCCNC(=N)N)C(=O)N[C@@H](CCCCN)C(=O)N2)NC(=O)[C@H](CSSC[C@@H](C(=O)N[C@@H](CCCCN)C(=O)N[C@@H](Cc2ccc(O)cc2)C(=O)N[C@H](C(=O)N[C@@H](Cc2ccccc2)C(N)=O)C(C)C)NC(=O)[C@H](Cc2c[nH]c4ccccc24)NC(=O)[C@H](CCCCN)NC(=O)[C@H](Cc2c[nH]cn2)NC(=O)[C@H]([C@@H](C)O)NC(=O)[C@H](CCCNC(=N)N)NC(=O)[C@H](CO)NC3=O)NC(=O)[C@H](CCCCN)NC(=O)[C@H](CC(=O)O)NC(=O)[C@H](CC(N)=O)NC(=O)[C@H](CC(=O)O)NC(=O)[C@@H]2CCCN2C1=O [SEQ ID NO: 188] ([pGlu]CLGFMRKCIPDNDKCCRPNLVCSRTHKWCKYVF-NH2; disulfide 2-17, 9-23, 16-30)
[1]; [4]
  IC50: 170 nM
[2]; [4]
  IC50: 110 nM
[3]; [4]
  IC50: 10700 nM

## CC[C@H](C)[C@@H]1NC(=O)[C@@H]2CSSC[C@@H]3NC(=O)[C@H](C(C)C)NC(=O)[C@H](CC(C)C)NC(=O)[C@H](CC(N)=O)NC(=O)[C@@H]4CCCN4C(=O)[C@H](CCCNC(=N)N)NC(=O)[C@H](CSSC[C@H](NC(=O)[C@@H](N)CC(=O)O)C(=O)N[C@@H](CC(C)C)C(=O)NCC(=O)N[C@@H](Cc4ccccc4)C(=O)N[C@@H](CCSC)C(=O)N[C@@H](CCCNC(=N)N)C(=O)N[C@@H](CCCCN)C(=O)N2)NC(=O)[C@H](CSSC[C@@H](C(=O)N[C@@H](CCCCN)C(=O)N(C)[C@@H](Cc2c[nH]c4ccccc24)C(=O)N[C@H](C(=O)N[C@@H](Cc2ccccc2)C(N)=O)C(C)C)NC(=O)[C@H](Cc2c[nH]c4ccccc24)NC(=O)[C@H](CCCCN)NC(=O)[C@H](Cc2c[nH]cn2)NC(=O)[C@H]([C@@H](C)O)NC(=O)[C@H](CCCNC(=N)N)NC(=O)[C@H](CO)NC3=O)NC(=O)[C@H](CCCCN)NC(=O)[C@H](CC(=O)O)NC(=O)[C@H](CC(N)=O)NC(=O)[C@H](CC(=O)O)NC(=O)[C@@H]2CCCN2C1=O [compound 371] (H-DCLGFMRKCIPDNDKCCRPNLVCSRTHKWCK[NMeW]VF-NH2; disulfide 2-17, 9-23, 16-30)
[1]; Table 25, use, […]
  IC50: 4880 nM
[2]; Table 25, use, […]
  IC50: > 5000 nM
[3]; Table 25, use, […]
  IC50: > 5000 nM
